Here are results for 22 compounds from patent US20230113037A1 (Bayer Aktiengesellschaft, priority 2019, published 2023).

For experiment [1], the target named is T1, AHR (Homo sapiens, UniProt P35869).
T1 construct: U87 MG glioblastoma cells (ATCC #HTB-14) endogenously expressing AHR; endogenous in cells; host or cells: U87 MG glioblastoma cells (ATCC #HTB-14)
T1 sequence (P35869 11-848): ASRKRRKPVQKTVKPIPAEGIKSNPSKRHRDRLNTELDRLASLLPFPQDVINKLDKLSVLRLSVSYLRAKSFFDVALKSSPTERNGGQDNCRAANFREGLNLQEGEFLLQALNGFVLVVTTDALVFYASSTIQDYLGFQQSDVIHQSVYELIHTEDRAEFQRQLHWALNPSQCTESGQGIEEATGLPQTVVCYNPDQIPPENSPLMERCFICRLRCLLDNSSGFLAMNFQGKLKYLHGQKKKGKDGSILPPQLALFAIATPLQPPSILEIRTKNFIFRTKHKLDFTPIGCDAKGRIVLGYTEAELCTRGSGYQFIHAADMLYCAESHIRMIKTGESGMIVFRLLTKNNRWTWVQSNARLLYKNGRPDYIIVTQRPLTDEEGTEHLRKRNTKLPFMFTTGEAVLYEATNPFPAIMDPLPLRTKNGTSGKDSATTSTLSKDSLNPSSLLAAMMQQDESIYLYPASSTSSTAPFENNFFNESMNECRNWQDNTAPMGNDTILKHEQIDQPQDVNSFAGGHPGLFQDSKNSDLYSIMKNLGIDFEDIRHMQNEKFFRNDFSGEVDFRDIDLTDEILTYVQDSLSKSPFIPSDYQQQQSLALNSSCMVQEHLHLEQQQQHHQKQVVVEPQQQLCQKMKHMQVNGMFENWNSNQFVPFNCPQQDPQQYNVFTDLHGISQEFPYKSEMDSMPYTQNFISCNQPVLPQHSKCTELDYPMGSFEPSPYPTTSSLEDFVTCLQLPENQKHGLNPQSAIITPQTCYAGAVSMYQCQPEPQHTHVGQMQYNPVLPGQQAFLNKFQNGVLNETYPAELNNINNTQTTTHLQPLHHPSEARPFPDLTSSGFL
The experiment is described as follows: In vitro assay 1: antagonism in human cell line (AHR transactivation, firefly luciferase reporter, kynurenic acid prestimulated). Format: cell-based. The conditions noted are these: AHR Antagonism Human IC50 [M]. The method in brief:
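Antagonism is measured against kynurenic acid prestimulation in U87 MG glioblastoma cells carrying stable DRE-luciferase and Renilla reporters. Positive inhibition control: 150 μM kynurenic acid with 5 μM staurosporine. Values are normalized to controls; repeats are averaged or given as medians.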

In experiment [2] the target is T2, AHR (Mus musculus, UniProt P30561).
T2 sequence (P30561 1-848 P471L/N533S/M589L): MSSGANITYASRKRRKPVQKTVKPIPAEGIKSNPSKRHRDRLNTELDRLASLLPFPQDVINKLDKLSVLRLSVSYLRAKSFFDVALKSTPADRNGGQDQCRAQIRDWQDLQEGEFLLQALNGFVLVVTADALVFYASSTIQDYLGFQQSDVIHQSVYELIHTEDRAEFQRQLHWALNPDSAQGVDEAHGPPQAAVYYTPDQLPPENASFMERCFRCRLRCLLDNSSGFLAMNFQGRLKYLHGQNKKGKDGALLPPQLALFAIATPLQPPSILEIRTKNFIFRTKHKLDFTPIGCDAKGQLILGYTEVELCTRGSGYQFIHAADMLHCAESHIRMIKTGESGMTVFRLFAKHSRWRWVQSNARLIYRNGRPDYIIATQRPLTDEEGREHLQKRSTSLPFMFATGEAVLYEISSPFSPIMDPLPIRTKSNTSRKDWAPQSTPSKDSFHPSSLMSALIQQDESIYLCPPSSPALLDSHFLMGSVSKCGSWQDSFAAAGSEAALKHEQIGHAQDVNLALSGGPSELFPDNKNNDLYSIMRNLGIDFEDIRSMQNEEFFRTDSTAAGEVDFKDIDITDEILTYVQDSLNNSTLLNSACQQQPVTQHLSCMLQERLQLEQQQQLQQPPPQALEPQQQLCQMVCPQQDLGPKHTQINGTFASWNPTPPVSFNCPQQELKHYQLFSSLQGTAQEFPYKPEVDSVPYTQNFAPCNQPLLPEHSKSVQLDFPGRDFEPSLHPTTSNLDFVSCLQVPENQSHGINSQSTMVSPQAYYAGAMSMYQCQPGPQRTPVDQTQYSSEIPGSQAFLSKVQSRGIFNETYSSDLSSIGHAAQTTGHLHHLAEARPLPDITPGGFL
The experiment in a line: In vitro assay 3: antagonism in mouse cell line (AHR transactivation, firefly luciferase reporter, kynurenic acid prestimulated). In kind it is cell-based. The settings on record: mouse Hepa 1c1c7 cells, 200 μM kynurenic acid, 20 hours, read-out: AHR Antagonism Mouse IC50. The method in brief: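 Kynurenic acid-prestimulated mouse reporter cells; stable AHR-inducible firefly luc construct with DRE sites in promoter. No-agonist wells = positive inhibition ctrl. Luminescence normalized to pos/neg ctrls; n>1 reported as mean or median.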
(Reporter assays use an easily measured gene product as a stand-in for the process of interest.)

For the compound `O=C1NCCC[C@H]1Nc1nc2ccccc2c2nc(-c3ccc(Cl)cc3OC(F)(F)F)nn12` [Example 519, (3R)-3-({2-[4-chloro-2-(trifluoromethoxy)phenyl][1,2,4]triazolo[1,5-c]quinazolin-5-yl}amino)piperidin-2-one], the half-maximal inhibitory concentration (IC50) against AHR [1] is 3.65e-08 M; at AHR [2], 22.2 nM.
On to `O=C1NCC[C@H]1Nc1nc2ccccc2c2nc(-c3ccc(Cl)cc3OC(F)(F)F)nn12` [Example 520, (3R)-3-({2-[4-chloro-2-(trifluoromethoxy)phenyl][1,2,4]triazolo[1,5-c]quinazolin-5-yl}amino)pyrrolidin-2-one], for which the 50% inhibitory concentration (IC50) at AHR [1] was determined as 3.05e-08 M; at AHR [2], 9.59 nM.
On the same counts, the results for `CCCCNC(=O)[C@H](C)Nc1nc2ccccc2c2nc(-c3ccc(Cl)cc3OC(F)(F)F)nn12` [Example 521, N-butyl-N^2-{2-[4-chloro-2-(trifluoromethoxy)phenyl][1,2,4]triazolo[1,5-c]quinazolin-5-yl}alaninamide] are 2.04e-08 M and 12.2 nM.
On to `CC[C@H](Nc1nc2ccccc2c2nc(-c3ccc(Cl)cc3OC(F)(F)F)nn12)C(N)=O` [Example 522, (2S)-2-({2-[4-chloro-2-(trifluoromethoxy)phenyl][1,2,4]triazolo[1,5-c]quinazolin-5-yl}amino)butanamide], for which the figures for the IC50 at AHR [1] and at AHR [2] were more than 2e-05 M and 29.1 nM, respectively.
In the same order, the values of `CC[C@@H](Nc1nc2ccccc2c2nc(-c3ccc(Cl)cc3OC(F)(F)F)nn12)C(N)=O` [Example 523, (2R)-2-({2-[4-chloro-2-(trifluoromethoxy)phenyl][1,2,4]triazolo[1,5-c]quinazolin-5-yl}amino)butanamide] are 4.99e-09 M and 0.84 nM.
In the case of `CC[C@H](Nc1nc2ccccc2c2nc(-c3ccc(Br)cc3OC(F)(F)F)nn12)C(N)=O` [Example 524, (2S)-2-({2-[4-bromo-2-(trifluoromethoxy)phenyl][1,2,4]triazolo[1,5-c]quinazolin-5-yl}amino)butanamide], the IC50 against AHR [1] stood at 1.3e-07 M; at AHR [2], 17.7 nM.
In the same order, the values of `O=C1NCCCC[C@@H]1Nc1nc2ccccc2c2nc(-c3ccc(Cl)cc3OC(F)F)nn12` [Example 526, (3S)-3-({2-[4-chloro-2-(difluoromethoxy)phenyl][1,2,4]triazolo[1,5-c]quinazolin-5-yl}amino)azepan-2-one] are 1.47e-08 M and 2.33 nM.
Turning to `O=C1NCC[C@H]1Nc1nc2ccccc2c2nc(-c3ccc(Cl)cc3OC(F)F)nn12` [Example 528, (3R)-3-({2-[4-chloro-2-(difluoromethoxy)phenyl][1,2,4]triazolo[1,5-c]quinazolin-5-yl}amino)pyrrolidin-2-one], the 50% inhibitory concentration (IC50) against AHR [1] stood at 9.3e-09 M; at AHR [2], 6.94 nM.
Take `CCCCNC(=O)[C@H](C)Nc1nc2ccccc2c2nc(-c3ccc(Cl)cc3OC(F)F)nn12` [Example 533, N-butyl-N^2-{2-[4-chloro-2-(difluoromethoxy)phenyl][1,2,4]triazolo[1,5-c]quinazolin-5-yl}alaninamide]: the IC50 was determined as 3.72e-09 M at AHR [1] and 3.94 nM on AHR [2].
On the same counts, the results for `O=C1NCCCC[C@H]1Nc1nc2ccccc2c2nc(-c3cnn(C(F)F)c3)nn12` [Example 534, (3R)-3-({2-[1-(difluoromethyl)-1H-pyrazol-4-yl][1,2,4]triazolo[1,5-c]quinazolin-5-yl}amino)azepan-2-one] are 2.03e-09 M and 0.828 nM.
On the same counts, the results for `O=C1NCCCC[C@H]1Nc1nc2ccccc2c2nc(-c3cnn(C4CC4)c3)nn12` [Example 535, (3R)-3-{[2-(1-cyclopropyl-1H-pyrazol-4-yl)[1,2,4]triazolo[1,5-c]quinazolin-5-yl]amino}azepan-2-one] are 5.13e-09 M and 2.57 nM.
Turning to `Cc1n[nH]c(C)c1-c1nc2c3ccccc3nc(N[C@@H]3CCCCNC3=O)n2n1` [Example 536, (3R)-3-{[2-(3,5-dimethyl-1H-pyrazol-4-yl)[1,2,4]triazolo[1,5-c]quinazolin-5-yl]amino}azepan-2-one], the IC50 against AHR [1] was 8.6e-08 M; at AHR [2] it was 94.7 nM.
With `O=C1NCCCC[C@H]1Nc1nc2ccccc2c2nc(-c3ccc(Br)o3)nn12` [Example 537, (3R)-3-{[2-(5-bromofuran-2-yl)[1,2,4]triazolo[1,5-c]quinazolin-5-yl]amino}azepan-2-one], the IC50 on AHR [1] was found to be 4.31e-09 M; at AHR [2], 1.9 nM.
In the same order, the values of `Cc1cscc1-c1nc2c3ccccc3nc(N[C@@H]3CCCCNC3=O)n2n1` [Example 538, (3R)-3-{[2-(4-methylthiophen-3-yl)[1,2,4]triazolo[1,5-c]quinazolin-5-yl]amino}azepan-2-one] are 8.79e-10 M and 0.646 nM.
In the same order, the values of `Cc1cscc1-c1nc2c3ccccc3nc(N[C@H]3CCCCNC3=O)n2n1` [Example 539, (3S)-3-{[2-(4-methylthiophen-3-yl)[1,2,4]triazolo[1,5-c]quinazolin-5-yl]amino}azepan-2-one] are 6.16e-08 M and 7.71 nM.
`Cc1cscc1-c1nc2c3ccccc3nc(N[C@@H]3CCCNC3=O)n2n1` [Example 540]: the IC50 at AHR [1] was found to be 6.05e-08 M; at AHR [2], 6.24 nM.
Consider `Cc1cscc1-c1nc2c3ccccc3nc(N[C@@H]3CCNC3=O)n2n1` [Example 541], for which the IC50 against AHR [1] came to 3.5e-08 M; at AHR [2], 631 nM.
In the case of `CC[C@@H](Nc1nc2ccccc2c2nc(-c3cscc3C)nn12)C(N)=O` [Example 542], the IC50 against AHR [1] was 3.55e-09 M; on AHR [2], 0.565 nM.
On the same counts, the results for `COc1ccc(-c2nc3c4ccc(C(F)(F)F)cc4nc(N[C@@H]4CCCCNC4=O)n3n2)cc1` [Example 548, (3R)-3-{[2-(4-methoxyphenyl)-8-(trifluoromethyl)[1,2,4]triazolo[1,5-c]quinazolin-5-yl]amino}azepan-2-one] are 9.46e-07 M and 2400 nM.
Consider `COc1ccc(-c2nc3c4ccc(OC)cc4nc(N[C@@H]4CCCCNC4=O)n3n2)cc1` [Example 549, (3R)-3-{[8-methoxy-2-(4-methoxyphenyl)[1,2,4]triazolo[1,5-c]quinazolin-5-yl]amino}azepan-2-one], for which the IC50 is 7.33e-08 M on AHR [1] and 17400 nM on AHR [2].
On the same counts, the results for `Cn1cc(-c2nc3c4cccc(F)c4nc(N[C@@H]4CCCCNC4=O)n3n2)cn1` [Example 551, (3R)-3-{[7-fluoro-2-(1-methyl-1H-pyrazol-4-yl)[1,2,4]triazolo[1,5-c]quinazolin-5-yl]amino}azepan-2-one] are 1.17e-08 M and 13.8 nM.
For `O=C1NCCCC[C@H]1Nc1nc2c(F)cccc2c2nc(-c3ccncc3)nn12` [Example 552, (3R)-3-{[7-fluoro-2-(pyridin-4-yl)[1,2,4]triazolo[1,5-c]quinazolin-5-yl]amino}azepan-2-one], the results for the IC50 at AHR [1] and at AHR [2] were 1.28e-07 M and 230 nM, respectively.

As usually defined, the IC50 is the concentration at which inhibition is half-maximal.
